Structures are written as SMILES.

What is called IC50 is the concentration needed to halve the response being measured.

The assay deals with T1, human PAD4 (Homo sapiens, UniProt Q9UM07).
T1 construct: human PAD4 (NM_012387), A2-P663, was PCR amplified; His-SUMO (N, cleaved yes); made in house; host or cells: E. coli BL21(DE3)
T1 sequence (Q9UM07 2-663): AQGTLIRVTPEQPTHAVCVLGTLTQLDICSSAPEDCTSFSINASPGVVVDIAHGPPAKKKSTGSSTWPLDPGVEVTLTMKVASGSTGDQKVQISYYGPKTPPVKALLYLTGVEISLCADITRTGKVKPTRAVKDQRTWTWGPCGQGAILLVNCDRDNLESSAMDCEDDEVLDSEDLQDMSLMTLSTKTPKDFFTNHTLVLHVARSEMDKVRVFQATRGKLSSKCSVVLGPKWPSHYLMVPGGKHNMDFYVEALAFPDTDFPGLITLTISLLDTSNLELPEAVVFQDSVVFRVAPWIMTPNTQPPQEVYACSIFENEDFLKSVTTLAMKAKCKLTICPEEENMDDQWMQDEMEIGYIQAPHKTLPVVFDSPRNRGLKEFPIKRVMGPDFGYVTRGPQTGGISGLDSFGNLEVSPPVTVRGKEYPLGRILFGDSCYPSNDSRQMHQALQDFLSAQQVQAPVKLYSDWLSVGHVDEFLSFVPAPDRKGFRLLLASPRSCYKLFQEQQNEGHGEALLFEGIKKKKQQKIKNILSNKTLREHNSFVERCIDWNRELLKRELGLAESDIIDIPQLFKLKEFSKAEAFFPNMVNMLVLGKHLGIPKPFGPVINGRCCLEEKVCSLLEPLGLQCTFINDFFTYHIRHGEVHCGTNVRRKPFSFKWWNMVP
As to the kind of experiment: In vitro PAD4 BAEE biochemical assay. The note with it: BAEE substrate 3 mM, 5 nM PAD4, 2 mM calcium chloride; geometric mean of multiple experiments. A digest of the protocol:
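Fluorescence read-out (ex 405/em 535 nm) of isoindole formed from ammonia, o-phthalaldehyde and DTT after EDTA stop. Reaction: 5 nM PAD4, 2 mM CaCl2, 3 mM BAEE, 2 h, 25 °C, after 30 min enzyme–compound preincubation. Normalised to BB-Cl-Amidine (50 µM) and DMSO controls.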
Regarding `COc1cc(C(=O)N2[C@H]3CC[C@@H]2[C@H](N)C3)cc2nc(-c3cc4ccc5nc4n3CCCCCCCC(=O)Nc3ncccc3-5)n(C)c12` [Example 89, 18-[5-[(1~{R},2~{R},4~{S})-2-amino-7-azabicyclo[2.2.1]heptane-7-carbonyl]-7-methoxy-1-methyl-benzimidazol-2-yl]-6,8,17,23-tetrazatetracyclo[15.5.2.0^{2,7}.0^{20,24}] tetracosa-1(23),2,4,6,18,20(24),21-heptaen-9-one], the half-maximal inhibitory concentration (IC50) is 113 nM.
For `COc1cc(C(=O)N2[C@H]3CC[C@@H]2[C@H](N)C3)cc2nc(-c3cc4ccc5nc4n3CCCCCCC(=O)Nc3ccncc3-5)n(C)c12` [Example 90, 17-[5-[(1~{R},2~{R},4~{S})-2-amino-7-azabicyclo[2.2.1]heptane-7-carbonyl]-7-methoxy-1-methyl-benzimidazol-2-yl]-4,8,16,22-tetrazatetracyclo[14.5.2.0^{2,7}.0^{19,23}] tricosa-1(22),2,4,6,17,19(23),20-heptaen-9-one] the value was 497 nM.
For `COc1cc(C(=O)N2[C@H]3CC[C@@H]2[C@H](N)C3)cc2nc(-c3cc4ccc5nc4n3CCCCCCNC(=O)c3ncccc3-5)n(C)c12` [Example 91, 17-[5-[(1˜{R},2˜{R},4˜{S})-2-amino-7-azabicyclo[2.2.1]heptane-7-carbonyl]-7-methoxy-1-methyl-benzimidazol-2-yl]-6,9,16,22-tetrazatetracyclo[14.5.2.0^{2,7}.0^{19,23}]tricosa-1(22),2,4,6,17,19(23),20-heptaen-8-one] the value was 82 nM; for `COc1cc(C(=O)N2[C@H]3CC[C@@H]2[C@H](N)C3)cc2nc(-c3cc4ccc5nc4n3CCCCCC(=O)Nc3ncccc3-5)n(C)c12` [Example 92, 16-[5-[(1~{R},2~{R},4~{S})-2-amino-7-azabicyclo[2.2.1]heptane-7-carbonyl]-7-methoxy-1-methyl-benzimidazol-2-yl]-6,8,15,21-tetrazatetracyclo[13.5.2.0^{2,7}.0^{18,22}] docosa-1(21),2(7),3,5,16,18(22),19-heptaen-9-one], 175 nM; for `COc1cc(C(=O)N2[C@H]3CC[C@@H]2[C@H](N)C3)cc2nc(-c3cc4ccc5nc4n3CCCCCCCC(=O)Nc3ccccc3-5)n(C)c12` [Example 93, 18-[5-[(1~{R},2~{R},4~{S})-2-amino-7-azabicyclo[2.2.1]heptane-7-carbonyl]-7-methoxy-1-methyl-benzimidazol-2-yl]-8,17,23-triazatetracyclo[15.5.2.0^{2,7).0^{20,24}] tetracosa-1(23),2,4,6,18,20(24),21-heptaen-9-one], 161 nM.
On to `COc1cc(C(=O)N2[C@H]3CC[C@@H]2[C@H](N)C3)cc2nc(-c3cc4ccc5cc4n3CCCCCCC(=O)Nc3ccccc3-5)n(C)c12` [Example 94, 17-[5-[(1~{R},2~{R},4~{S})-2-amino-7-azabicyclo[2.2.1]heptane-7-carbonyl]-7-methoxy-1-methyl-benzimidazol-2-yl]-8,16-diazatetracyclo[14.5.2.0^{2,7}.0^{19,23}] tricosa-1(22),2,4,6,17,19(23),20-heptaen-9-one], for which the half-inhibitory concentration (IC50) was 165 nM.
For `COc1cc(C(=O)N2[C@H]3CC[C@@H]2[C@H](N)C3)cc2nc(-c3cc4ccc5nc4n3CCCCCCC(=O)Nc3cnccc3-5)n(C)c12` [Example 95, 17-[5-[(1~{R},2~{R},4~{S})-2-amino-7-azabicyclo[2.2.1]heptane-7-carbonyl]-7-methoxy-1-methyl-benzimidazol-2-yl]-5,8,16,22-tetrazatetracyclo[14.5.2.0^{2,7}.0^{19,23}] tricosa-1(22),2,4,6,17,19(23),20-heptaen-9-one] the value was 86 nM.
For `COc1cc(C(=O)N2[C@H]3CC[C@@H]2[C@H](N)C3)cc2nc(-c3cc4ccc5nc4n3CCCCCCNc3ncccc3-5)n(C)c12` [Example 96, [(1˜{R},2˜{R},4˜{S})-2-amino-7-azabicyclo[2.2.1]heptan-7-yl]-[7-methoxy-1-methyl-2-(6,8,15,21-tetrazatetracyclo[13.5.2.0^{2,7}.0^{18,22}]docosa-1(21),2,4,6,16,18(22),19-heptaen-16-yl)benzimidazol-5-yl]methanone] the value was 3130 nM.
For the compound `COc1cc(C(=O)N2[C@H]3CC[C@@H]2[C@H](N)C3)cc2nc(-c3cc4ccc5cc4n3CCCCCCNC(=O)c3ccccc3-5)n(C)c12` [Example 97, 17-[5-[(1~{R},2~{R},4~{S})-2-amino-7-azabicyclo[2.2.1]heptane-7-carbonyl]-7-methoxy-1-methyl-benzimidazol-2-yl]-9,16-diazatetracyclo[14.5.2.0^{2,7}.0^{19,23}] tricosa-1(22),2,4,6,17,19(23),20-heptaen-8-one], the IC50 stood at 57 nM.
For `COc1cc(C(=O)N2[C@H]3CC[C@@H]2[C@H](N)C3)cc2nc(-c3cc4ccc5cc4n3CCCCCCNC(=O)c3ncccc3-5)n(C)c12` [Example 98, 17-[5-[(1~{R},2~{R},4~{S})-2-amino-7-azabicyclo[2.2.1]heptane-7-carbonyl]-7-methoxy-1-methyl-benzimidazol-2-yl]-6,9,16-triazatetracyclo[14.5.2.0^{2,7}.0^{19,23}] tricosa-1(22),2,4,6,17,19(23),20-heptaen-8-one], the IC50 stood at 122 nM.
For the compound `COc1cc(C(=O)N2[C@H]3CC[C@@H]2[C@H](N)C3)cc2nc(-c3cc4ccc5cc4n3CCCCCCC(C)(C)C(=O)Nc3ncccc3-5)n(C)c12` [Example 99, 18-[5-[(1~{R},2~{R},4~{S})-2-amino-7-azabicyclo[2.2.1]heptane-7-carbonyl]-7-methoxy-1-methyl-benzimidazol-2-yl]-10,10-dimethyl-6,8,17-triazatetracyclo[15.5.2.0^{2,7}.0^{20,24}] tetracosa-1(23),2(7),3,5,18,20(24),21-heptaen-9-one], the half-maximal inhibitory concentration (IC50) was found to be 111 nM.
Regarding `COc1cc(C(=O)N2[C@H]3CC[C@@H]2[C@H](N)C3)cc2nc(-c3cc4ccc5cc4n3CCCCCCC(C)(C)C(=O)Nc3ccccc3-5)n(C)c12` [Example 100, 18-[5-[(1~{R},2~{R},4~{S})-2-amino-7-azabicyclo[2.2.1]heptane-7-carbonyl]-7-methoxy-1-methyl-benzimidazol-2-yl]-10,10-dimethyl-8,17-diazatetracyclo[15.5.2.0^{2,7}.0^{20,24}] tetracosa-1(23),2(7),3,5,18,20(24),21-heptaen-9-one], the half-inhibitory concentration (IC50) worked out at 833 nM.
For `COc1cc(C(=O)N2[C@H]3CC[C@@H]2[C@H](N)C3)cc2nc(-c3cc4ccc5cc4n3CCCC3CCN(CC3)C(=O)c3ccccc3-5)n(C)c12` [Example 101, 17-[5-[(1~{R},2~{R},4~{S})-2-amino-7-azabicyclo[2.2.1]heptane-7-carbonyl]-7-methoxy-1-methyl-benzimidazol-2-yl]-9,16-diazapentacyclo[14.5.2.2^{9,12}.0^{2,7}.0^ {19,23}]pentacosa-1(22),2,4,6,17,19(23),20-heptaen-8-one], the IC50 worked out at 7450 nM.
`COc1cc(C(=O)N2[C@H]3CC[C@@H]2[C@H](N)C3)cc2nc(-c3cc4ccc5nc4n3CCCCCC(C)(C)C(=O)N[C@@H]5C)n(C)c12` [Example 102, (10~{R})-16-[5-[(1~{R},2~{R},4~{S})-2-amino-7-azabicyclo[2.2.1]heptane-7-carbonyl]-7-methoxy-1-methyl-benzimidazol-2-yl]-7,7,10-trimethyl-1,9,18-triazatricyclo[9.5.2.0^{14,17}]octadeca-11(18),12,14(17),15-tetraen-8-one]: the half-inhibitory concentration (IC50) was 45 nM.
Consider `CCCO[C@@H]1CCN(C(=O)c2cc(OC)c3c(c2)nc(-c2cc4ccc5nc4n2CCCCCCC(C)(C)C(=O)N[C@@H]5C)n3C)C[C@@H]1N` [Example 103, (11~{R})-17-[5-[(3~{S},4~{R})-3-amino-4-propoxy-piperidine-1-carbonyl]-7-methoxy-1-methyl-benzimidazol-2-yl]-8,8,11-trimethyl-1,10,19-triazatricyclo[10.5.2.0^{15,18}]nonadeca-12(19),13,15(18),16-tetraen-9-one], for which the IC50 came out at 166 nM.
As to `CCO[C@@H]1CCN(C(=O)c2cc(OC)c3c(c2)nc(-c2cc4ccc5nc4n2CCCCCCC(C)(C)C(=O)N[C@@H]5C)n3C)C[C@@H]1N` [Example 104, (11~{R})-17-[5-[(3~{S},4~{R})-3-amino-4-ethoxy-piperidine-1-carbonyl]-7-methoxy-1-methyl-benzimidazol-2-yl]-8,8,11-trimethyl-1,10,19-triazatricyclo[10.5.2.0^{15,18}]nonadeca-12(19),13,15(18),16-tetraen-9-one], the IC50 was 115 nM.
Turning to `CN[C@H]1CN(C(=O)c2cc(OC)c3c(c2)nc(-c2cc4ccc5nc4n2CCCCCCC(C)(C)C(=O)N[C@@H]5C)n3C)CC[C@H]1OC` [Example 105, (11~{R})-17-[7-methoxy-5-[(3~{S},4~{R})-4-methoxy-3-(methylamino)piperidine-1-carbonyl]-1-methyl-benzimidazol-2-yl]-8,8,11-trimethyl-1,10,19-triazatricyclo[10.5.2.0^{15,18}]nonadeca-12(19),13,15(18),16-tetraen-9-one], the IC50 is 27400 nM.
For `COc1cc(C(=O)N2CCC[C@@H](N)C2)cc2nc(-c3cc4ccc5nc4n3CCCCCC(C)(C)C(=O)N[C@@H]5C)c(C)n12` [Example 106, (10~{R})-16-[7-[(3~{R})-3-aminopiperidine-1-carbonyl]-5-methoxy-3-methyl-imidazo[1,2-a]pyridin-2-yl]-7,7,10-trimethyl-1,9,18-triazatricyclo[9.5.2.0^{14,17}]octadeca-11(18),12,14(17),15-tetraen-8-one] the value was 201 nM.
`COc1cc(C(=O)N2CCC[C@@H](N)C2)cc2nc(-c3cc4ccc5nc4n3CCCCCCCCC(=O)N3CCC[C@H]53)n(C)c12` [Example 107, (2~{R})-17-[5-[(3~{R})-3-aminopiperidine-1-carbonyl]-7-methoxy-1-methyl-benzimidazol-2-yl]-6,16,22-triazatetracyclo[14.5.2.0^{2,6}.0^{19,23}] tricosa-1(22),17,19(23),20-tetraen-7-one]: the concentration for half-maximal inhibition (IC50) was determined as 24 nM.

(Values after patent US11976083B2, “Inhibitors of peptidylarginine deiminases” (Gilead Sciences, Inc., priority 2020, dated 2024).)
